Holding throughout (conditions): binder
For one test, the target named is T1, DRAK1 (Homo sapiens, UniProt Q9UEE5).
T1 sequence (Q9UEE5 1-414): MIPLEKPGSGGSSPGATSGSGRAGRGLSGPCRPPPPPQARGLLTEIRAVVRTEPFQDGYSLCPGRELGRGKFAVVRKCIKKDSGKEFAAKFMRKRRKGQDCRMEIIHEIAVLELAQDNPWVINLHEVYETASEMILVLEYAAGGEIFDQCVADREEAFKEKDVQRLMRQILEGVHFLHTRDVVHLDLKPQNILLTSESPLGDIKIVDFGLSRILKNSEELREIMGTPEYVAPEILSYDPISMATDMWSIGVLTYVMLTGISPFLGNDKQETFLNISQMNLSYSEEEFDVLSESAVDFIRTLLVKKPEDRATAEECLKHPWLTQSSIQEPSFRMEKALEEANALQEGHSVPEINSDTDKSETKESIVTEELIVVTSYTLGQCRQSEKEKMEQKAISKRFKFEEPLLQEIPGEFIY

The target of a further test is Wnk1 (Homo sapiens, UniProt Q9H4A3).
Another test concerns the target T2, MAP3K5 (Homo sapiens, UniProt Q99683).
T2 sequence (Q99683 1-1374): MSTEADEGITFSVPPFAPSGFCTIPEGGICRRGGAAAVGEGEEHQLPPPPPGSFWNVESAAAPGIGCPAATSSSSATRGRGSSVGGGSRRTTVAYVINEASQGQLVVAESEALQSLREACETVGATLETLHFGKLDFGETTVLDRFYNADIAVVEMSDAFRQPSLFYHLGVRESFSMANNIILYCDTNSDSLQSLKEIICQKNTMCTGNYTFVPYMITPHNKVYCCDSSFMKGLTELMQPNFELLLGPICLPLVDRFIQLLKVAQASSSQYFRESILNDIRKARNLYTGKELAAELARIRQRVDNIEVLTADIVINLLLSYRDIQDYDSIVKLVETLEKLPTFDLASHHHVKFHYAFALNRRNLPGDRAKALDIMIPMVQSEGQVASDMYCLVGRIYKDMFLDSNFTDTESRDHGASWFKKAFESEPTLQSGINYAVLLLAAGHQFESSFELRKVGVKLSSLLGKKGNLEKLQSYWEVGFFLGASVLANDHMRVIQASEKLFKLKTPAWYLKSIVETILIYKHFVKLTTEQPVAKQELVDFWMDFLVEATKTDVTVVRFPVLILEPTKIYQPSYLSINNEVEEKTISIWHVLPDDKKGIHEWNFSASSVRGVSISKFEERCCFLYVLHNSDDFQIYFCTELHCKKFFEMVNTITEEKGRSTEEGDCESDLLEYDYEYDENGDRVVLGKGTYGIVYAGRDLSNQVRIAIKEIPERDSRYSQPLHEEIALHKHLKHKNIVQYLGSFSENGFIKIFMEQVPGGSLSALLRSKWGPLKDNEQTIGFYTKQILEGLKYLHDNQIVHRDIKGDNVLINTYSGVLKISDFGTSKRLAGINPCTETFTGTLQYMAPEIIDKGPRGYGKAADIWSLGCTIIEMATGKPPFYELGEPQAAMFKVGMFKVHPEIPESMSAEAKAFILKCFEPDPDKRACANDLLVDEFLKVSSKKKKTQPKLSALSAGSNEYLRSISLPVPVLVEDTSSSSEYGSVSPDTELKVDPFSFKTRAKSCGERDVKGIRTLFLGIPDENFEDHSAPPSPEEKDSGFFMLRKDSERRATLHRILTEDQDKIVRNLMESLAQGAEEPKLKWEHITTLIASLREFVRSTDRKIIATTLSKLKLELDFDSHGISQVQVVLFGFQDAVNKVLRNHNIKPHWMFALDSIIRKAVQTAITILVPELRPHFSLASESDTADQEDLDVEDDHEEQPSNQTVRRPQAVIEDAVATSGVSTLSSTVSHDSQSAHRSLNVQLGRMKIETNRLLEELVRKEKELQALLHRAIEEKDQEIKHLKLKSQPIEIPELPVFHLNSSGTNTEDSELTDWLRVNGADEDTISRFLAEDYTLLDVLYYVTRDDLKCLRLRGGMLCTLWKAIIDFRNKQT

Another test addresses EphA2 (Homo sapiens, UniProt P29317).
The target of the next test is T3, BMX (Homo sapiens, UniProt P51813).
T3 sequence (P51813 1-675): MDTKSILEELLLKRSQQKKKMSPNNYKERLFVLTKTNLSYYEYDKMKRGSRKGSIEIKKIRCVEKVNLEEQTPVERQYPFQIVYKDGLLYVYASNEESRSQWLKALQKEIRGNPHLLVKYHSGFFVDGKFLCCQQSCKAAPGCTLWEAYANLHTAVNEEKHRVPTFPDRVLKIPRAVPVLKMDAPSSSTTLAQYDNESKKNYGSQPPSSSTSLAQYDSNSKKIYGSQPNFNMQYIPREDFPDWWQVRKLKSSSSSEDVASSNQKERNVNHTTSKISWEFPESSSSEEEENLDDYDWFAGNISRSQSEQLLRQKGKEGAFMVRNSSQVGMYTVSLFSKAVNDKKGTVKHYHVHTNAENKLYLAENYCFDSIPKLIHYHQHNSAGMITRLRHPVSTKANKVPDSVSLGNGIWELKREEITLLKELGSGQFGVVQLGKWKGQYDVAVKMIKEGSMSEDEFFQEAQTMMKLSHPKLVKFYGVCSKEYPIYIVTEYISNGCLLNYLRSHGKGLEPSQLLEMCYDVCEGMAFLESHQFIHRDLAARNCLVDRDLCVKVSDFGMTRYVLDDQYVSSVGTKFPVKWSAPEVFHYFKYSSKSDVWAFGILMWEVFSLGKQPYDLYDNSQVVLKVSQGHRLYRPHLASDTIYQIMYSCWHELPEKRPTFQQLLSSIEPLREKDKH

Results on 4 molecules are retold here after publication doi:10.1101/2023.11.24.568596v1 (biorxiv, 2023).

Wnk1, sequence (Q9H4A3 whole entry): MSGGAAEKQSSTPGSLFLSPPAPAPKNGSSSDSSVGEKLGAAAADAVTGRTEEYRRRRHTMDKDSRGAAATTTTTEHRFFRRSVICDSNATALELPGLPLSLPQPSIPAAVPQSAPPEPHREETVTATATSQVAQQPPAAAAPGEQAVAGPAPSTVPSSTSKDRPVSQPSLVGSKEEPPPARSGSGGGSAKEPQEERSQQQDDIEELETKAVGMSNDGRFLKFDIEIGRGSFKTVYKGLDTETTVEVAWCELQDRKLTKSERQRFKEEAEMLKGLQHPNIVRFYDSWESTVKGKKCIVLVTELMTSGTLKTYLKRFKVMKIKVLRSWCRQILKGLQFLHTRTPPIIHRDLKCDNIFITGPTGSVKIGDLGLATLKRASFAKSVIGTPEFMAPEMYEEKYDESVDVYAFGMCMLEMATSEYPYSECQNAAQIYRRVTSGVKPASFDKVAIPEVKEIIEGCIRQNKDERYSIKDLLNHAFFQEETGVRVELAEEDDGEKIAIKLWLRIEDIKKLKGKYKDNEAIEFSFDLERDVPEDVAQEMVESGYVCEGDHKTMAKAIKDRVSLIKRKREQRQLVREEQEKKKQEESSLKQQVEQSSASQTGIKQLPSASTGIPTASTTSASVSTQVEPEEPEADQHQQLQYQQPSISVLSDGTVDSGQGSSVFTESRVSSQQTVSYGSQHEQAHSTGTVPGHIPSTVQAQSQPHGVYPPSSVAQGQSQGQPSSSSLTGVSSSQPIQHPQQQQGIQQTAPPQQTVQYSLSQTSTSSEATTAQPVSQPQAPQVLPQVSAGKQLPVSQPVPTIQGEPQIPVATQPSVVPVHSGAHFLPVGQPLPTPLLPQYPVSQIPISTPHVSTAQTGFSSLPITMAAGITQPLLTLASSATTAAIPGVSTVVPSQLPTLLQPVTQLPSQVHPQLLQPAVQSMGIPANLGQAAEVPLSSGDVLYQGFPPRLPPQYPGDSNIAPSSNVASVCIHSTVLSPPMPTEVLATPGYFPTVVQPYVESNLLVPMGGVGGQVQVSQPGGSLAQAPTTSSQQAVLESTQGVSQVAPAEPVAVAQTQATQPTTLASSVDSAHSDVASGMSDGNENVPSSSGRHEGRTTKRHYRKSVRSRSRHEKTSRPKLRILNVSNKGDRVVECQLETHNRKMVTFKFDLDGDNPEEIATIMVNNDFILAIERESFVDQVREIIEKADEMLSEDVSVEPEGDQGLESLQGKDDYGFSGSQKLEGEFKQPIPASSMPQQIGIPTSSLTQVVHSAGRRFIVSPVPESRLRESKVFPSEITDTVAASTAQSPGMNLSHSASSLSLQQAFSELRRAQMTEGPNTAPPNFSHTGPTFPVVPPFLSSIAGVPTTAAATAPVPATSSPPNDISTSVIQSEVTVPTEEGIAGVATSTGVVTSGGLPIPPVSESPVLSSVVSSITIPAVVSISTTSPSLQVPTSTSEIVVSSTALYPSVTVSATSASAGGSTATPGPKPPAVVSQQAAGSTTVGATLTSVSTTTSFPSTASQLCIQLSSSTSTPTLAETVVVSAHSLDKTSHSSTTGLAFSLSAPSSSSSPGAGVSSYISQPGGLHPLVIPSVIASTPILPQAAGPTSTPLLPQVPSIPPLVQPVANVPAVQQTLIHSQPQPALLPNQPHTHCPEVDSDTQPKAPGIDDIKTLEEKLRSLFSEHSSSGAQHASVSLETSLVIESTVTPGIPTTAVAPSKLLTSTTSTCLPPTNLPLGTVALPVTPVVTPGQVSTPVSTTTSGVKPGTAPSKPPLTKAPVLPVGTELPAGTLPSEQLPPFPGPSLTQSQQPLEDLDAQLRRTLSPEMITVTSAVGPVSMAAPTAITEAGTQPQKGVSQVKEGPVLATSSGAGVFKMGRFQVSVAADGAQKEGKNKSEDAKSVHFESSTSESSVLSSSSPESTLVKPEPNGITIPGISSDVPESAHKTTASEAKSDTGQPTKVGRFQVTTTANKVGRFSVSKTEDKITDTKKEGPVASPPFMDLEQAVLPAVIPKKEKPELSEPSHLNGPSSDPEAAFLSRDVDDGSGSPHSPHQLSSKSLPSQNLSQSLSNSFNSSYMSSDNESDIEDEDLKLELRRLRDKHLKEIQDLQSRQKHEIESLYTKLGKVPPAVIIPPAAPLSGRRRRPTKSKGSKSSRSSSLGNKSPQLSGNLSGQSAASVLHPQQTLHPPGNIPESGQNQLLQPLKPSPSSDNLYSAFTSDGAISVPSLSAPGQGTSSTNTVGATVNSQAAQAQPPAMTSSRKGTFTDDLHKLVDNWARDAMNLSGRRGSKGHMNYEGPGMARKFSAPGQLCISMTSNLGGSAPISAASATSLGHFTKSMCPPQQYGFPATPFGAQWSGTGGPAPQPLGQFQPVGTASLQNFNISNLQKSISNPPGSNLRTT
EphA2, sequence (P29317 whole entry): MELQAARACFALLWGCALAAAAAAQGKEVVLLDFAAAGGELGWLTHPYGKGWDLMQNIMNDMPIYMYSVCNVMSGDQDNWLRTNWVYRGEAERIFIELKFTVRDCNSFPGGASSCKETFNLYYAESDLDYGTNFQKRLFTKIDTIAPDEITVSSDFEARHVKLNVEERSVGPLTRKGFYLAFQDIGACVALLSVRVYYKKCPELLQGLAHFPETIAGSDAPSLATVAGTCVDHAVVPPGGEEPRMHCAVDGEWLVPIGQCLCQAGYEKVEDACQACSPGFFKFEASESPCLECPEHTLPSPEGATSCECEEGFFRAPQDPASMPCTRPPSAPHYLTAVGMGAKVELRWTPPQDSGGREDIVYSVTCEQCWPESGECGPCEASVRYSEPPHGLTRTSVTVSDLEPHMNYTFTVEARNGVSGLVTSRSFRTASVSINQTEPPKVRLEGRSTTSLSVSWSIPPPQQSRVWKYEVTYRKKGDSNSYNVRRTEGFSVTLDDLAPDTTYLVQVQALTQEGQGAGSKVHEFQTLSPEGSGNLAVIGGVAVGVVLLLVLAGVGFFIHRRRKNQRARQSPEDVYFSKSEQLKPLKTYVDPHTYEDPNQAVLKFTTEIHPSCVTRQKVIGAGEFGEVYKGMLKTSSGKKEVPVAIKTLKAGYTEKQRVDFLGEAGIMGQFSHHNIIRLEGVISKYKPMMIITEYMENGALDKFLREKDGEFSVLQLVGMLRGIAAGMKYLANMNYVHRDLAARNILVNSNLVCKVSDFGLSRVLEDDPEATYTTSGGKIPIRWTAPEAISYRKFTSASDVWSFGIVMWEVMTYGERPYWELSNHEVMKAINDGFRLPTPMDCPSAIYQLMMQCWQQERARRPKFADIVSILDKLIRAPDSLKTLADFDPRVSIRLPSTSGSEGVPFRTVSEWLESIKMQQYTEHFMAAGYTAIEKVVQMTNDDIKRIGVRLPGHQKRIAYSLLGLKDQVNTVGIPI

As to `COc1cc(N2CCN(C)CC2)ccc1Nc1ncc2cc(-c3ccc(-c4cccc(C)n4)cc3Cl)c(=O)n(CCCCN)c2n1` [compound 36, 8-(4-Aminobutyl)-6-(2-chloro-4-(6-methylpyridin-2-yl)phenyl)-2-((2-methoxy-4-(4-methylpiperazin-1-yl)phenyl)amino)pyrido[2,3-d]pyrimidin-7(8H)-one], the “dTm 36” value at DRAK1 was found to be 6.1 °C; at Wnk1 it was 1.5 °C; at MAP3K5 it was 10.1 °C; at EphA2, 2.4 °C; on BMX, 3.3 °C.
As for `COc1ccc(O)c(Nc2ncc3cc(-c4ccc(-c5cccc(C)n5)cc4Cl)c(=O)n(CCCCN)c3n2)c1` [compound 34, 8-(4-Aminobutyl)-6-(2-chloro-4-(6-methylpyridin-2-yl)phenyl)-2-((2-hydroxy-5-methoxy-phenyl)amino)pyrido[2,3-d]pyrimidin-7(8H)-one], the “dTm 34” value was 2.2 °C on DRAK1; 0.8 °C on Wnk1; 10.3 °C at MAP3K5; 3.9 °C at EphA2; 4.1 °C on BMX.
For `COc1cc(N2CCOCC2)ccc1Nc1ncc2cc(-c3ccc(-c4cccc(C)n4)cc3Cl)c(=O)n(CCCCN)c2n1` [compound 35, 8-(4-Aminobutyl)-6-(2-chloro-4-(6-methylpyridin-2-yl)phenyl)-2-((2-methoxy-4-morpholino-phenyl)amino)pyrido[2,3-d]pyrimidin-7(8H)-one], the “dTm 35” value on DRAK1 was 5.2 °C; at Wnk1, 2.7 °C; at MAP3K5 it was 12.2 °C; at EphA2, 4.6 °C; on BMX, 4.4 °C.
Consider `Cc1cccc(-c2ccc(-c3cc4cnc(Nc5ccc(F)c(CO)c5)nc4n(CCCCN)c3=O)c(Cl)c2)n1` [compound 33, 8-(4-Aminobutyl)-6-(2-chloro-4-(6-methylpyridin-2-yl)phenyl)-2-((4-fluoro-3-(hydroxymethyl)phenyl)amino)pyrido[2,3-d]pyrimidin-7(8H)-one], for which the “dTm 33” value at DRAK1 worked out at 3.5 °C; on Wnk1 it was 3.3 °C; at MAP3K5, 14.1 °C; at EphA2, 8.3 °C; on BMX it was 7.1 °C.
